Data on 20 molecules can be found in PubChem BioAssay AID248 (DTP/NCI, 2004).

Each structure is given as a SMILES string. Several values for one entry are separate records, joined by “and”; a condition that tells them apart may be missing. Identical values can stand only once. Inconclusive results and toxic doses are left out.

This assay has as its system L1210 leukemia ip in BDF1 mice, survival T/C. The assay can be described thus: NCI In Vivo Anticancer Drug Screen. Data for tumor model L1210 Leukemia (intraperitoneal) in B6D2F1 (BDF1) mice. Conditions: endpoint: mean survival time, higher = longer survival. In outline: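 Read-out is survival time, reported as the treated-group measurement over the vehicle-control measurement.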

[1] abbreviates: dose: 100.0 mg/kg/injection, schedule: Q01DX001 (ip), vehicle: saline.
Where [2] appears, read: dose: 200.0 mg/kg/injection, schedule: Q01DX001 (ip), vehicle: saline.
Where [3] appears, read: dose: 400.0 mg/kg/injection, schedule: Q01DX001 (ip), vehicle: saline.
[4] abbreviates: dose: 100.0 mg/kg/injection, schedule: Q01DX001 (ip), vehicle: carboxymethylcellulose (CMC).
Where [5] appears, read: dose: 200.0 mg/kg/injection, schedule: Q01DX001 (ip), vehicle: carboxymethylcellulose (CMC).
The mark [6] stands for this setting: dose: 100.0 mg/kg/injection, schedule: Q01DX009 (ip), vehicle: saline with Tween-80.
Where [7] appears, read: dose: 100.0 mg/kg/injection, schedule: Q04DX003 (ip), vehicle: saline with Tween-80.
Setting [8] is: dose: 200.0 mg/kg/injection, schedule: Q01DX009 (ip), vehicle: saline with Tween-80.
[9] abbreviates: dose: 200.0 mg/kg/injection, schedule: Q04DX003 (ip), vehicle: saline with Tween-80.
Where [10] appears, read: dose: 400.0 mg/kg/injection, schedule: Q01DX009 (ip), vehicle: saline with Tween-80.
Setting [11] is: dose: 400.0 mg/kg/injection, schedule: Q04DX003 (ip), vehicle: saline with Tween-80.
[12] abbreviates: dose: 100.0 mg/kg/injection, schedule: Q01DX001 (ip), vehicle: Klucel (hydroxypropylcellulose) (HPC).
Where [13] appears, read: dose: 200.0 mg/kg/injection, schedule: Q01DX001 (ip), vehicle: Klucel (hydroxypropylcellulose) (HPC).
[14] abbreviates: dose: 400.0 mg/kg/injection, schedule: Q01DX001 (ip), vehicle: Klucel (hydroxypropylcellulose) (HPC).
[15] abbreviates: dose: 100.0 mg/kg/injection, schedule: Q04DX002 (ip), vehicle: saline with Tween-80.
Setting [16] is: dose: 200.0 mg/kg/injection, schedule: Q04DX002 (ip), vehicle: saline with Tween-80.
[17] abbreviates: dose: 100.0 mg/kg/injection, schedule: Q01DX009 (ip), vehicle: Klucel (hydroxypropylcellulose) (HPC).
The mark [18] stands for this setting: dose: 100.0 mg/kg/injection, schedule: Q04DX003 (ip), vehicle: Klucel (hydroxypropylcellulose) (HPC).
Setting [19] is: dose: 200.0 mg/kg/injection, schedule: Q01DX009 (ip), vehicle: Klucel (hydroxypropylcellulose) (HPC).
[20] abbreviates: dose: 200.0 mg/kg/injection, schedule: Q04DX003 (ip), vehicle: Klucel (hydroxypropylcellulose) (HPC).
Where [21] appears, read: dose: 400.0 mg/kg/injection, schedule: Q01DX009 (ip), vehicle: Klucel (hydroxypropylcellulose) (HPC).
Where [22] appears, read: dose: 400.0 mg/kg/injection, schedule: Q04DX003 (ip), vehicle: Klucel (hydroxypropylcellulose) (HPC).
The mark [23] stands for this setting: dose: 200.0 mg/kg/injection, schedule: Q01DX009 (ip), vehicle: saline.

For `CCCCNC(=O)OC/C=C/CC(Cl)(Cl)Cl`, the T/C runs as follows: (dose: 100.0 mg/kg/injection, schedule: Q01DX009 (sc), vehicle: olive oil, sesame oil, peanut oil) 103 % of control; (dose: 100.0 mg/kg/injection, schedule: Q04DX003 (sc), vehicle: olive oil, sesame oil, peanut oil) 95 % of control; (dose: 200.0 mg/kg/injection, schedule: Q01DX009 (sc), vehicle: olive oil, sesame oil, peanut oil) 101 % of control; (dose: 200.0 mg/kg/injection, schedule: Q04DX003 (sc), vehicle: olive oil, sesame oil, peanut oil) 108 % of control; (dose: 400.0 mg/kg/injection, schedule: Q01DX009 (sc), vehicle: olive oil, sesame oil, peanut oil) 101 % of control; (dose: 400.0 mg/kg/injection, schedule: Q04DX003 (sc), vehicle: olive oil, sesame oil, peanut oil) 94 % of control.
In the case of `C=CCNC(=O)SCCC(=O)O`, the T/C runs as follows: under setting [1], 93 % of control; under setting [2], 100 % of control; under setting [3], 102 % of control.
On to `Cc1ccc(-c2ccc(C)cc2[N+](=O)[O-])cc1`, for which the T/C is, setting by setting: under setting [4], 91 % of control; under setting [5], 100 % of control; (dose: 400.0 mg/kg/injection, schedule: Q01DX001 (ip), vehicle: carboxymethylcellulose (CMC)) 102 % of control.
Regarding `CCc1occ(C(=O)OC)c1C(=O)OC`, the T/C is, setting by setting: under setting [6], 96 % of control; under setting [7], 95 % of control; under setting [8], 96 % of control; under setting [9], 94 % of control; under setting [10], 100 % of control; under setting [11], 104 % of control.
On to `CC(C)(C)OC(=O)COc1ccc(NC(=O)COc2ccc(Cl)c(Cl)c2)cc1`, for which the T/C was 101 % of control under setting [12], 101 % of control under setting [13] and 101 % of control under setting [14].
Consider `CCOC(=O)CNc1ccc(C(=O)OCC)s1`, for which the T/C is 98 % of control (dose: 31.25 mg/kg/injection, schedule: Q01DX009 (ip), vehicle: acetone); 100 % of control (dose: 62.5 mg/kg/injection, schedule: Q01DX009 (ip), vehicle: acetone); 96 % of control (dose: 125.0 mg/kg/injection, schedule: Q01DX009 (ip), vehicle: acetone); 94 % of control (dose: 190.0 mg/kg/injection, schedule: Q01DX009 (ip), vehicle: saline); 88 % of control (dose: 285.0 mg/kg/injection, schedule: Q01DX009 (ip), vehicle: saline).
On to `CC(=O)Nc1ccc(S(=O)(=O)c2ccc(N)cc2)cc1`, for which the T/C by setting is: (dose: 12.5 mg/kg/injection, schedule: Q04DX002 (ip), vehicle: saline with Tween-80) 105 % of control; (dose: 25.0 mg/kg/injection, schedule: Q04DX002 (ip), vehicle: saline with Tween-80) 109 % of control and 90 % of control; (dose: 50.0 mg/kg/injection, schedule: Q04DX002 (ip), vehicle: saline with Tween-80) 97 % of control; under setting [15], 97 % of control and 102 % of control; under setting [16], 109 % of control.
On to `CC(C)=CCC/C(C)=C\C=N\NC(N)=S`, for which the T/C is 96 % of control (dose: 50.0 mg/kg/injection, schedule: Q01DX001 (ip), vehicle: carboxymethylcellulose (CMC)); 104 % of control under setting [4]; 104 % of control under setting [5].
Turning to `O=C1C(C(O)c2ccccc2)SC(c2ccccc2)N1c1ccccc1` (stereo not given), the T/C runs as follows: under setting [17], 97 % of control; under setting [18], 90 % of control; under setting [19], 101 % of control; under setting [20], 94 % of control; under setting [21], 95 % of control; under setting [22], 93 % of control.
Consider `Nc1nc(SC2CCCCC2)c2[nH]cnc2n1`, for which the T/C reads like this: (dose: 60.0 mg/kg/injection, schedule: Q01DX Z (ip), vehicle: carboxymethylcellulose (CMC)) 95 % of control; (dose: 120.0 mg/kg/injection, schedule: Q01DX Z (ip), vehicle: carboxymethylcellulose (CMC)) 104 % of control; (dose: 240.0 mg/kg/injection, schedule: Q01DX Z (ip), vehicle: carboxymethylcellulose (CMC)) 106 % of control; (dose: 480.0 mg/kg/injection, schedule: Q01DX Z (ip), vehicle: carboxymethylcellulose (CMC)) 112 % of control.
Regarding `COc1cc([N+](=O)[O-])ccc1NC(=O)NCCc1ccc(OC)c(OC)c1`, the T/C is 93 % of control under setting [17], 96 % of control under setting [19] and 100 % of control under setting [21].
Consider `O=C1c2ccccc2S(=O)(=O)N1CCCBr`, for which the T/C was 89 % of control under setting [17], 89 % of control under setting [19] and 89 % of control under setting [21].
In the case of `CCCCCCCC(=O)N1C(=O)CCC1C(=O)NCC(=O)NCC(=O)OCc1ccccc1` (stereo not given), the T/C was 95 % of control under setting [12], 98 % of control under setting [13] and 91 % of control under setting [14].
Consider `C=CCOC(=N)c1ccccc1`, for which the T/C was 93 % of control (dose: 50.0 mg/kg/injection, schedule: Q01DX009 (ip), vehicle: saline with Tween-80); 105 % of control under setting [6]; 91 % of control under setting [8].
With `[N-]=[N+]=NC(c1ccccc1)(c1ccccc1)c1ccccc1`, the T/C reads like this: under setting [15], 97 % of control; under setting [16], 97 % of control; (dose: 400.0 mg/kg/injection, schedule: Q04DX002 (ip), vehicle: saline with Tween-80) 97 % of control.
Turning to `Cc1ccc(C)c(NC(=O)Nc2cccc3ccccc23)c1`, the T/C is, setting by setting: (dose: 100.0 mg/kg/injection, schedule: Q01DX009 (ip), vehicle: gum acacia) 96 % of control; under setting [18], 89 % of control; (dose: 200.0 mg/kg/injection, schedule: Q01DX009 (ip), vehicle: gum acacia) 100 % of control; under setting [20], 93 % of control; (dose: 400.0 mg/kg/injection, schedule: Q01DX009 (ip), vehicle: gum acacia) 91 % of control; under setting [22], 98 % of control.
For the molecule `CC(C)(C)CC(C)(C)c1ccc(OCCOc2ccc(S(=O)(=O)O)cc2[N+](=O)[O-])cc1`, the T/C by setting is: (dose: 100.0 mg/kg/injection, schedule: Q01DX009 (ip), vehicle: saline) 105 % of control; under setting [23], 105 % of control; (dose: 400.0 mg/kg/injection, schedule: Q01DX009 (ip), vehicle: saline) 100 % of control.
Regarding `O=[N+]([O-])c1ccc2c(c1[N+](=O)[O-])CCCC2`, the T/C was 93 % of control under setting [6]; 93 % of control under setting [7]; 98 % of control under setting [8]; 93 % of control under setting [9]; 98 % of control under setting [10]; 98 % of control under setting [11].
Take `COc1cccc([Si](C)(C)[Si](C)C)c1`: the T/C runs as follows: (dose: 100.0 mg/kg/injection, schedule: Q04DX003 (ip), vehicle: saline) 98 % of control; (dose: 200.0 mg/kg/injection, schedule: Q04DX003 (ip), vehicle: saline) 110 % of control; (dose: 400.0 mg/kg/injection, schedule: Q04DX003 (ip), vehicle: saline) 96 % of control.
Turning to `COC(=O)c1cn[nH]c1/N=N/N(C)C`, the T/C by setting is: (dose: 25.0 mg/kg/injection, schedule: Q01DX009 (ip), vehicle: other) 120 % of control; (dose: 58.0 mg/kg/injection, schedule: Q01DX009 (ip), vehicle: other) 156 % of control; (dose: 88.0 mg/kg/injection, schedule: Q01DX009 (ip), vehicle: other) 163 % of control; under setting [1], 107 % of control; (dose: 133.0 mg/kg/injection, schedule: Q01DX009 (ip), vehicle: saline) 155 % of control; under setting [2], 120 % of control. For the same molecule, the T/C under setting [23] was 156 % of control and the T/C under setting [3] was 122 % of control.
